What is called TGI is the concentration at which net growth stops. Read a low TGI as greater sensitivity of the cells. By GI50 is commonly meant the concentration at which growth is held to half of that of the control.

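Grown in 96-well plates, cells were treated for 48 hours with each compound at five concentrations. Insufficient inhibition: endpoint recorded as highest concentration tested. At the GI50, growth is halved. TGI marks complete inhibition of growth.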 A value given as a limit tells only on which side of the number the result lay.

What all share (assay): DTP human tumour cell line panel, 48 h
Experiment [1] deals with UO-31 renal.
In experiment [2] the test system is NCI-H23 lung.
Experiment [3] deals with UACC-62 melanoma.
Experiment [4] concerns SF-539 CNS.
Experiment [5] concerns SNB-19 CNS.
The subject of experiment [6] is IGROV1 ovarian.
In experiment [7] the test system is K-562 leukemia.
Experiment [8] concerns SK-MEL-2 melanoma.
The test system of experiment [9] is SW-620 colon.
The subject of experiment [10] is NCI-H522 lung.

Turning to `O=[N+]([O-])c1ccc(NC2OCC(O)C(O)C2O)cc1` (stereo not given), the TGI in experiment [1], in [2], in experiment [3], in experiment [4], in [5] and in experiment [6] was greater than 100 µM each time. The TGI in experiment [7], in experiment [8], in experiment [9] and in [10] was greater than 100 µM in each case.
As to `CN(C)CCNC(=O)c1cccc2cc3ccccc3nc12`, the GI50 in experiment [1] was 1.11 µM; in experiment [2] it was 1.8 µM; in experiment [3], 1.42 µM; in experiment [4] it was 1.78 µM; in experiment [5], 2.21 µM; in experiment [6] it was 1.47 µM. Further, the GI50 was 1.88 µM in experiment [7], 2.27 µM in experiment [8], 0.775 µM in experiment [9] and 1.32 µM in experiment [10]. Besides, the concentration for total growth inhibition (TGI) in experiment [1] is 4.06 µM; in experiment [2], 5.13 µM; in experiment [3] it was 3.25 µM; in experiment [4], 8.21 µM; in [5] it was greater than 21.6 µM; in [6] it was greater than 22 µM. For the same compound, the TGI in experiment [7] is 18.1 µM; in [8], 4.34 µM; in experiment [9] it was 3.17 µM; in experiment [10] it was 3.12 µM.
As for `COc1ccc2cc(C(=O)/C=C/c3cccc(Cl)c3Cl)ccc2c1`, the GI50 was 10.2 µM in experiment [1]; 6.42 µM in [2]; 4.08 µM in experiment [3]; 2.68 µM in experiment [4]; 26.2 µM in experiment [5]; 16.6 µM in experiment [6]. For the same compound, the GI50 in experiment [7] is 4.93 µM; in experiment [8], greater than 50.9 µM; in [9], 1.32 µM; in experiment [10] it was 0.614 µM. The TGI in experiment [1] was greater than 53.2 µM; in [2], 29.4 µM; in experiment [3], 28.4 µM; in experiment [4], 12 µM; in experiment [5] it was greater than 83.3 µM; in [6], greater than 100 µM. In addition, the TGI is greater than 100 µM in experiment [7], 98.3 µM in experiment [8], greater than 100 µM in [9] and greater than 24.6 µM in experiment [10].
As to `CCc1cccc(CC)c1NC(=S)NC(=O)c1ccc(Br)cc1`, the TGI in [1], in experiment [2], in [3], in [4], in [5] and in [6] was greater than 100 µM each time. For the same compound, the TGI is greater than 100 µM in experiment [7], 48.9 µM in experiment [8], greater than 100 µM in experiment [9] and 51.3 µM in experiment [10].
In the case of `COc1cc2c3c(n(CCN)c(=O)c2cc1OC)-c1cc2c(cc1C3=O)OCO2`, the GI50 in [1] is 0.226 µM; in experiment [2] it was 0.0788 µM; in [3] it was 0.134 µM; in [4], 0.766 µM; in experiment [5] it was 1.5 µM; in experiment [6], 1.53 µM. In addition, the GI50 is 0.0969 µM in [7], 3.22 µM in experiment [8], 0.0383 µM in [9] and 0.771 µM in experiment [10]. For the same compound, the TGI is 1.91 µM in [1]; 1.06 µM in experiment [2]; 1.51 µM in experiment [3]; 2.74 µM in [4]; greater than 100 µM in [5]; 4.74 µM in [6]. Moreover, the TGI in experiment [7] was greater than 100 µM; in [8], 10.5 µM; in experiment [9], 2.29 µM; in [10], 6.57 µM.
As to `CC1=C(C(=O)Nc2ccccc2C)C(c2ccc([N+](=O)[O-])cc2)C(C(=O)Nc2ccccc2C)=C(C)N1`, the TGI in [1], in [2], in [3], in experiment [4], in [5] and in [6] was greater than 100 µM in each case. Besides, the TGI in [7], in [8], in experiment [9] and in experiment [10] was greater than 100 µM each time.
`O=C(Nc1cnn2ccc(N3CCC[C@@H]3c3cc(F)ccc3F)nc12)N1CC[C@H](O)C1`: the GI50 in [1], in [2], in [3], in experiment [4], in experiment [5] and in experiment [6] was greater than 100 µM in each case. The GI50 in experiment [7], in experiment [8], in experiment [9] and in [10] was greater than 100 µM each time. Besides, the TGI in [1], in experiment [2], in experiment [3], in experiment [4], in [5] and in [6] was greater than 100 µM throughout. Moreover, the TGI in [7], in [8], in [9] and in experiment [10] was greater than 100 µM throughout.
Turning to `COc1ccc(-c2cnc(-c3ccc(F)cc3)[nH]2)cc1`, the GI50 in [1] was 6.59 µM; in [2], 10.6 µM; in experiment [3], 19.4 µM; in [4], 9.46 µM; in experiment [5], 10.8 µM; in experiment [6] it was 6.58 µM. The GI50 in experiment [7] was 10.3 µM; in experiment [8] it was 18.8 µM; in [9], 1.91 µM; in experiment [10] it was 20.5 µM. Further, the TGI in experiment [1] was 20.4 µM; in experiment [2] it was 46.6 µM; in experiment [3] it was greater than 50 µM; in experiment [4], 29.6 µM; in [5] it was 26.1 µM; in experiment [6], 12.7 µM. Also, the TGI is greater than 55.1 µM in experiment [7], 45 µM in experiment [8], 3.99 µM in [9] and greater than 56.1 µM in [10].

Source of the values: PubChem BioAssay (NCI).
